Measurements: patent US20240246964A1 (Arbutus Biopharma Corporation, priority 2021, published 2024)
pEC50: −log10 of the molar value.

Molecular target: human PD-L1 (Homo sapiens (Human), UniProt Q9NZQ7)
Test: T cell activation luciferase reporter cell culture system (T Cell Activation Assay)
Format: cell-based
Details: luciferase reporter assay; PD-L1 aAPC/CHO-K1 cells with PD-1 effector Jurkat T cells

Sequence of human PD-L1 (Q9NZQ7 19-290): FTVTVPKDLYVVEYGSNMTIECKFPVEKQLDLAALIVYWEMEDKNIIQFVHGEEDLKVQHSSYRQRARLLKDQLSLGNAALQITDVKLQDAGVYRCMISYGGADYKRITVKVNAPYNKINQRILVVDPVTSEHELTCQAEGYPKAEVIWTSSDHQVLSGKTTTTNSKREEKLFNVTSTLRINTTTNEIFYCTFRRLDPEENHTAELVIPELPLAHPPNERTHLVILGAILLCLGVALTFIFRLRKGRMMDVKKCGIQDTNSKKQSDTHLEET

| Structure (SMILES) | pEC50 |
| --- | --- |
| COc1cc(-c2nccc(-c3cccc(-c4ccc5c(OC)c(CNC[C@@H]6CCC(=O)N6)cc(Cl)c5n4)c3Cl)c2Cl)cc(F)c1CNC[C@@H]1CCC(=O)N1 [Example 236, (S)-5-((((8-Chloro-2-(2-chloro-3-(3-chloro-2-(3-fluoro-5-methoxy-4-(((((S)-5-oxopyrrolidin-2-yl)methyl)amino)methyl)phenyl)pyridin-4-yl)phenyl)-5-methoxyquinolin-6-yl)methyl)amino)methyl)pyrrolidin-2-one] | 7.27 |
| COc1cc(-c2nccc(-c3cccc(-c4ccc(CNC[C@@H]5CCC(=O)N5)c(OC)n4)c3Cl)c2Cl)ccc1CNC1CC2(C1)CN(C(C)=O)C2 [Example 237, (S)-5-((((6-(3-(2-(4-(((2-acetyl-2-azaspiro[3.3]heptan-6-yl)amino)methyl)-3-methoxyphenyl)-3-chloropyridin-4-yl)-2-chlorophenyl)-2-methoxypyridin-3-yl)methyl)amino)methyl)pyrrolidin-2-one] | 7.66 |
| COc1cc(-c2nccc(-c3cccc(-c4ccc5c(OC)c(CNCCO)cc(Cl)c5n4)c3Cl)c2Cl)ccc1CNC[C@@H]1CCC(=O)N1 [Example 238, (S)-5-(((4-(3-chloro-4-(2-chloro-3-(8-chloro-6-(((2-hydroxyethyl)amino)methyl)-5-methoxyquinolin-2-yl)phenyl)pyridin-2-yl)-2-methoxybenzyl)amino)methyl)pyrrolidin-2-one] | 6.89 |
| CNCc1ccc(-c2nccc(-c3cccc(-c4ccc(CNC5CCN(C(C)=O)CC5)c(OC)n4)c3Cl)c2Cl)cc1OC [Example 240, 1-(4-(((6-(2-chloro-3-(3-chloro-2-(3-methoxy-4-((methylamino)methyl)phenyl)pyridin-4-yl)phenyl)-2-methoxypyridin-3-yl)methyl)amino)piperidin-1-yl)ethan-1-one] | 7.54 |
| COc1cc(-c2cccc(-c3ccnc(-c4ccc5c(c4)CN(CCNC[C@@H]4CCC(=O)N4)C5=O)c3Cl)c2Cl)cc(F)c1CNC[C@@H]1CCC(=O)N1 [Example 242, 5-(3-Chloro-4-(2-chloro-3′-fluoro-5′-methoxy-4′-(((((S)-5-oxopyrrolidin-2-yl)methyl)amino)methyl)-[1,1′-biphenyl]-3-yl)pyridin-2-yl)-2-(2-((((S)-5-oxopyrrolidin-2-yl)methyl)amino)ethyl)isoindolin-1-one] | 6.36 |
| COc1cc(-c2nccc(-c3cccc(-c4ccc(CNC5CCN(C(C)=O)CC5)c(OC)n4)c3Cl)c2Cl)ccc1CN1CC2(CC(C(=O)O)C2)C1 [Example 243, 2-(4-(4-(3-(5-(((1-acetylpiperidin-4-yl)amino)methyl)-6-methoxypyridin-2-yl)-2-chlorophenyl)-3-chloropyridin-2-yl)-2-methoxybenzyl)-2-azaspiro[3.3]heptane-6-carboxylic acid] | 6.98 |
| COc1cc(-c2nccc(-c3cccc(-c4ccc(CNC5CCN(C(C)=O)CC5)c(OC)n4)c3Cl)c2Cl)ccc1CN1CC2(CNC(=O)C2)C1 [Example 244, 2-(4-(4-(3-(5-(((1-acetylpiperidin-4-yl)amino)methyl)-6-methoxypyridin-2-yl)-2-chlorophenyl)-3-chloropyridin-2-yl)-2-methoxybenzyl)-2,6-diazaspiro[3.4]octan-7-one] | 7.60 |
| COc1cc(-c2nccc(-c3cccc(-c4ccc(CNC5CCN(C(C)=O)CC5)c(OC)n4)c3Cl)c2Cl)ccc1CN1CC[C@H](C(=O)OC(C)C)C1 [Example 245, Isopropyl (S)-1-(4-(4-(3-(5-(((1-acetylpiperidin-4-yl)amino)methyl)-6-methoxypyridin-2-yl)-2-chlorophenyl)-3-chloropyridin-2-yl)-2-methoxybenzyl)pyrrolidine-3-carboxylate] | 6.73 |
| COc1cc(-c2nccc(-c3cccc(-c4ccc5c(CNC6CCN(C(C)=O)CC6)cn(C)c5n4)c3Cl)c2Cl)ccc1CNC1CCN(C(C)=O)CC1 [Example 246, 1-(4-((4-(4-(3-(3-(((1-acetylpiperidin-4-yl)amino)methyl)-1-methyl-1H-pyrrolo[2,3-b]pyridin-6-yl)-2-chlorophenyl)-3-chloropyridin-2-yl)-2-methoxybenzyl)amino)piperidin-1-yl)ethan-1-one] | 7.00 |
| COc1nc(-c2ccnc(-c3cccc4c3CC[C@@H]4Oc3nc(OC)c(CN4CC5(C4)CN(C(C)=O)C5)cc3C(F)(F)F)c2Cl)ccc1CN1CC2(C1)CN(C(C)=O)C2 [Example 248, (S)-1-(6-((6-((4-(5-((6-Acetyl-2,6-diazaspiro[3.3]heptan-2-yl)methyl)-3′-chloro-6-methoxy-[2,4′-bipyridin]-2′-yl)-2,3-dihydro-1H-inden-1-yl)oxy)-2-methoxy-5-(trifluoromethyl)pyridin-3-yl)methyl)-2,6-diazaspiro[3.3]heptan-2-yl)ethan-1-one] | 6.22 |
| COc1cc(-c2nccc(-c3cccc(-c4ccc(CN5CC6(C5)CN(C(C)=O)C6)c(OC)n4)c3Cl)c2Cl)cc2c1CN(CCCF)CC2 [Example 249, 1-(6-((6-(2-Chloro-3-(3-chloro-2-(2-(3-fluoropropyl)-8-methoxy-1,2,3,4-tetrahydroisoquinolin-6-yl)pyridin-4-yl)phenyl)-2-methoxypyridin-3-yl)methyl)-2,6-diazaspiro[3.3]heptan-2-yl)ethan-1-one] | 7.09 |
| COc1cc(-c2nccc(-c3cccc(-c4ccc(CN5CC6(CNC(=O)C6)C5)c(OC)n4)c3Cl)c2Cl)cc2c1CN(CCCF)CC2 [Example 250, 2-((6-(2-Chloro-3-(3-chloro-2-(2-(3-fluoropropyl)-8-methoxy-1,2,3,4-tetrahydroisoquinolin-6-yl)pyridin-4-yl)phenyl)-2-methoxypyridin-3-yl)methyl)-2,6-diazaspiro[3.4]octan-7-one] | 7.51 |
| COc1cc(-c2nccc(-c3cccc(-c4ccc(CNC5CC6(COC6)C5)c(OC)n4)c3Cl)c2Cl)cc2c1CN(CCCF)CC2 [Example 251, N-((6-(2-Chloro-3-(3-chloro-2-(2-(3-fluoropropyl)-8-methoxy-1,2,3,4-tetrahydroisoquinolin-6-yl)pyridin-4-yl)phenyl)-2-methoxypyridin-3-yl)methyl)-2-oxaspiro[3.3]heptan-6-amine] | 6.93 |
| COc1cc(-c2nccc(-c3cccc(-c4ccc(CNCC5(CO)CC5)c(OC)n4)c3Cl)c2Cl)cc2c1CN(CCCF)CC2 [Example 252, (1-((((6-(2-Chloro-3-(3-chloro-2-(2-(3-fluoropropyl)-8-methoxy-1,2,3,4-tetrahydroisoquinolin-6-yl)pyridin-4-yl)phenyl)-2-methoxypyridin-3-yl)methyl)amino)methyl)cyclopropyl)methanol] | 7.27 |
| COc1nc(-c2ccnc(-c3cccc4c3CC[C@@H]4Oc3nc(OC)c(CNC[C@H](C)O)cc3C(F)(F)F)c2Cl)ccc1CNC[C@H](C)O [Example 253, (S)-1-(((3′-Chloro-2′-((S)-1-((5-((((S)-2-hydroxypropyl)amino)methyl)-6-methoxy-3-(trifluoromethyl)pyridin-2-yl)oxy)-2,3-dihydro-1H-inden-4-yl)-6-methoxy-[2,4′-bipyridin]-5-yl)methyl)amino)propan-2-ol] | 7.41 |
| COc1nc(-c2cccc(-c3ccnc(-c4ccc5c(c4)CCC[C@H]5NC[C@@H]4CCC(=O)N4)c3Cl)c2Cl)ccc1CN1CC2(CNC(=O)C2)C1 [Example 255, 2-((6-(2-chloro-3-(3-chloro-2-((R)-5-((((S)-5-oxopyrrolidin-2-yl)-methyl)-amino)-5,6,7,8-tetrahydronaphthalen-2-yl)pyridin-4-yl)phenyl)-2-methoxypyridin-3-yl)methyl)-2,6-diazaspiro[3.4]octan-7-one] | 6.52 |
